Test results reported in patent US9586914B2, “Modulators of C3a receptors” (THE UNIVERSITY OF QUEENSLAND, priority 2011, dated 2017).
Entries after “also recorded” stand apart in the source; their conditions may differ. Where two headings read alike, the source gives them in different places.

What was measured:
[1] = biological target: T1, C3a receptor (C3aR) (Homo sapiens, UniProt Q16581); test: Competitive binding with [^125I]-C3a in HMDM; details: for IC50 / pIC50 ± SEM / Receptor Binding Affinity pIC50 ± SE: HMDM
T1 construct: peripheral blood mononuclear cells were isolated from buffy coat (obtained from Australian Red Cross Blood Service, Kelvin Grove); endogenous in cells; host or cells: primary human monocyte-derived macrophages (HMDM) differentiated from CD14+ monocytes of donor buffy coat
T1 sequence (Q16581 1-482): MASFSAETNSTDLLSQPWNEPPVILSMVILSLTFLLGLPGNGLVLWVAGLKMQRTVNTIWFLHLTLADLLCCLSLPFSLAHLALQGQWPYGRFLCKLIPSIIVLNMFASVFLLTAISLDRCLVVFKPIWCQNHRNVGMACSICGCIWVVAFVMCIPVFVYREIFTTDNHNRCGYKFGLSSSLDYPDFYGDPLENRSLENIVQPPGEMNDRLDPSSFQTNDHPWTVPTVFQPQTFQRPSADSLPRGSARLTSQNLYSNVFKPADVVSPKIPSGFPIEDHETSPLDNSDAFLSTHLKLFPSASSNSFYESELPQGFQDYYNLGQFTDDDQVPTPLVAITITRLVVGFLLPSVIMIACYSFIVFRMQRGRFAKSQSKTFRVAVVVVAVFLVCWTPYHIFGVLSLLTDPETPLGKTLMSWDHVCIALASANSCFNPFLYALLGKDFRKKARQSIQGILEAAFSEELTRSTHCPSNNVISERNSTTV
Procedure, shortened: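 IC50 values are geometric means, with −log IC50 computed per experiment and given as arithmetic mean ± SE. Cells were CD14+ monocytes from buffy-coat PBMC, differentiated to macrophages and used on day 7. Unbound label was removed by GF/B filtration with 3 cold washes in 50 mM Tris-HCl pH 7.4.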

[2] = biological target: T2, C3aR (Homo sapiens, UniProt Q16581); test: Calcium mobilization assay in HMDM (agonist/antagonist activity); assay type: cell-based
T2 construct: peripheral blood mononuclear cells were isolated from buffy coat (obtained from Australian Red Cross Blood Service, Kelvin Grove); endogenous in cells; host or cells: primary human monocyte-derived macrophages (HMDM) differentiated from CD14+ monocytes of donor buffy coat
T2 sequence (Q16581 1-482): T1 sequence (Q16581 1-482)
Procedure, shortened: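 Human monocyte-derived macrophages, 5×10^4 cells/well, loaded 1 h at 37 °C with 4 μM Fluo-3 in HBSS/HEPES/probenecid buffer, pH 7.4. Agonist mode: calcium release read 300 s; antagonist mode: 900 s compound preincubation then agonist, read 300 s (ex 485/em 520 nm); compared with hC3a.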

[3] = system: IL1B, IL8, CCL3, EGR1, FOSB and TNF gene expression in HMDMs; test: Regulation of inflammatory genes in HMDM (qRT-PCR); assay type: cell-based, human; details: for Induction of gene expression of IL1B, IL8, CCL3, EGR1, FOSB and TNF: HMDMs, 300 nM, 30 minutes, qRT-PCR, fold change from control
From the text: Human monocyte-derived macrophages (HMDMS) were isolated from buffy coat of anonymous donors provided by the Australian Red Cross Blood Service at Kelvin Grove, Queensland, Australia. White blood cells were separated from other blood components into different layers using Ficoll-Paque Plus Density Centrifugation (GE Healthcare Bio-Science, Uppsala, Sweden) according to manufacturer's instruction. The isolated white blood cells were repeatedly washed with ice-cold water to remove contaminating erythrocytes. CD14^+ monocytes were positively selected from white blood cells using CD14^+ Macs Magnetic Beads (Miltenyi biotech, Auburn, Calif., USA) after successive magnetic sorting and washings. CD14^+ monocytes (1.5×10^6 cells/mL) were seeded in 10 mL of IMDM supplemented with 10% fetal calf serum (FBS), 10 U/mL streptomycin, 10 U/mL penicillin and 2 mmol L-glutamine (Invitrogen). To generate HMDMS, […] of recombinant human macrophage colony stimulating factor (M-CSF) (Peprotech Inc., rocky Hill, N.J., USA) was added for differentiation. HMDMS were maintained at 37° C. in a humidified incubator with 5% CO2 for a week to fully differentiate. At day 7, the adhered HMDMS were harvested by gentle scraping in saline solution.
HMDMs (2×10^6) in 2 mL of IMDM medium were transferred into each well on a 6-well plate. The cells were left to incubate for 6 h to allow adhesion before being serum starved in serum free IMDM to reduce background noise of the C3a treatment. In the time response experiment, cells were treated with 10 nM of C3a or agonist (compound 8 or 64) for 0.5, 1, 2 or 6 h. In concentration response experiments, cells were treated with 1, 10, 100 or 300 nM for 1 h. To prepare the samples for the microarray experiments, cells were treated with agonist at 100-300 nM for 30 min or 1 h in the absence or presence of the antagonist (e.g. SB-290157 or antagonists). […] Cells were washed with saline solution at the end of each treatment before the RNA extraction step.
Total RNA was extracted from cells using RNeasy Mini Plus kit (Qiagen, USA) according to the manufacturer's instructions. The concentration of the RNA was determined by measuring absorbance at λ=260/280 […] on a nanodrop spectrophotometer (Thermo Scientific), according to the manufacturer's instructions.
Total RNA (2-5 μg) was reverse transcribed with Superscript III (Invitrogen, USA) using random oligo dT primer. Reagents were incubated (50 min, 50° C.; then 10 min, 70° C.) in thermal cyclers (Bio-Rad) to complete the reaction, cDNA samples were stored at −20° C. until further use. All RNA work was performed on ice (4° C.) to prevent degradation of the RNA samples.
cDNA (0.5 μg) samples were prepared with 5 μL SYBR® Green PCR master mix (Applied Biosystems™, CA, USA), 2 μL relevant primers (2 μM) and 1 μL dH2O before being analysed using an ABI 7900HT Fast Real-Time PCR System (Applied Biosystems™, CA, USA) according to the manufacturer's specifications. Fluorescence data was collected during the extension phase (60° C.). The concentration response data for each sample was then normalised against the same data for control housekeeping gene, (18S) to quantify and generate gene expression data. All samples were done in at least duplicate. Primers were designed using the Primer-BLAST software (National Center for Biotechnology Information, USA). Primers contained, amplicons that cross exon-exon boundaries to prevent amplification of genomic DNA. […]

[4] = Table 8, read-out: Receptor Binding Affinity ^125I IC50
[5] = Table 10, HMDM, read-out: Agonist Activity EC50
[6] = Table 6, competitive binding with [^125I]-C3a
[7] = Table 6, competitive binding with [^125I]-C3a, read-out: IC50 (converted)
[8] = Table 11, [^125I]-C3a, read-out: Receptor Binding Affinity IC50
[9] = Table 9, Ca^2+ mobilization, HMDM
[10] = Table 11, Ca^2+ mobilisation, HMDM

For `Cc1nc(C(c2ccccc2)c2ccccc2)[nH]c1C(=O)N[C@@H](CCCNC(=N)N)C(=O)O` [Compound 64, 2-Diphenylmethyl-4-methyl imidazole-5-carboxyl-Arg-OH], the IC50 [1, 4] was 7.6 nM, the “-Log IC50” value ([1]; Table 14, binding affinity for C3aR on HMDM) was 8.0 and the EC50 [2, 5] was 24 nM. The “Function at C3aR (agonist / antagonist)” value ([2]; text of Example 100) was “potent full agonist” and the “Induction of gene expression of IL1B, IL8, CCL3, EGR1, FOSB and TNF” value [3] was “significantly induce gene expression; also recorded: induced expression of inflammatory genes”.
In the case of pertussis toxin [reference compound], the “Effect of pertussis toxin pre-treatment on gene induction by C3a or compounds 8 or 64” value ([3]; 200 ng/mL pertussis toxin overnight, then 300 nM agonist for 30 minutes (not shown)) is reported as “ablated”.
In the case of “hC3a: human complement protein C3a, natural ligand of the C3a receptor; unlabelled competitor and reference agonist”, the “pIC50 ± SEM” value [1, 6] is reported as 9.64 ± 0.04, the IC50 [1, 7] is reported as 0.23 nM and the IC50 [1, 4] is reported as 0.07 nM. For the same compound, the “Receptor Binding Affinity pIC50 ± SE” value ([1]; Table 11, [^125I]-C3a) was 9.64 ± 0.04, the IC50 [1, 8] was 0.23 nM and the “pEC50 ± SEM” value [2, 9] was 7.19 ± 0.06. The EC50 ([2]; Table 9, Ca^2+ mobilization, HMDM, read-out: EC50) was 65 nM, the EC50 [2, 5] was 45000 nM and the “Apparent Antagonist Activity pEC50 ± SE” value [2, 10] was 7.2 ± 0.06. The EC50 ([2]; Table 11, Ca^2+ mobilisation, HMDM, read-out: Apparent Antagonist Activity EC50) was 65 nM and the “Induction of gene expression of IL1B, IL8, CCL3, EGR1, FOSB and TNF” value [3] was “significantly induce gene expression”.
With `NC(N)=NCCC[C@H](NC(=O)COCC(c1ccccc1)c1ccccc1)C(=O)O` [SB290157, reference compound] the “pIC50 ± SEM” value [1, 6] was 7.42 ± 0.06, the IC50 [1, 7] was 38 nM and the IC50 [1, 4] was 11 nM. For the same compound, the “Receptor Binding Affinity pIC50 ± SE” value ([1]; Table 11, [^125I]-C3a) was 7.42 ± 0.06, the IC50 [1, 8] was 38 nM and the “pEC50 ± SEM” value [2, 9] was 5.52 ± 0.08. For the same compound, the IC50 ([2]; Table 9, antagonist SB290157, Ca^2+ mobilization, HMDM, read-out: IC50 (printed in the EC50 (nM) column)) was 3050 nM, the IC50 ([2]; Table 10, HMDM, read-out: Antagonist Activity Ca^2+ IC50) was 1300 nM and the “Apparent Antagonist Activity pEC50 ± SE (symbol)” value ([2]; Table 11) was “* (The compounds show no agonist activity in calcium mobilisation assays up to 100 μM.)”. The “Apparent Antagonist Activity pIC50 ± SE” value [2, 10] was 5.6 ± 0.09, the IC50 ([2]; Table 11, Ca^2+ mobilisation, HMDM, read-out: Apparent Antagonist Activity IC50) was 2700 nM and the “Effect of antagonist on gene induction by C3a or compounds 8 or 64” value ([3]; SB290157 5 μM, 30 mins preincubation) was “prevented”.
